The conditions of data set [1]: in vivo, po; cited from earlier work.
Where [2] appears, read: pH 6.8, aqueous solubility pH 6.8.

As a reminder, the solubility is the dissolved amount per volume that the medium holds. Lower therefore signals a poorly soluble substance.

Converted amounts (≈) assume the structure as drawn. Bounds are passed on as bounds.

The compound `Cc1ccnc(NC(c2ccc([N+](=O)[O-])cc2)c2ccc3cccnc3c2O)c1` (centres unmarked) [Compound 34] returned a solubility in “physchem” (setting [2]) of 0.0741 µM (≈ 0.0286 µg/mL).

Take `Cc1ccnc(NC(c2ccc([N+](=O)[O-])cc2)c2ccc3ccc(C)nc3c2O)c1` (centres unmarked) [Compound 35]: in the data set “physchem” (setting [2]), the concentration in solution (solubility) came to 0.0659 µM (≈ 0.0264 µg/mL).

`COc1ccc(C(Nc2ccccn2)c2ccc3cccnc3c2O)cc1` (centres unmarked) [Compound 36] registered a solubility in the data set “physchem” (setting [2]) of 0.0053 µM (≈ 0.00189 µg/mL).

Regarding `COc1ccc(C(Nc2ccccn2)c2ccc3ccc(C)nc3c2O)cc1` (centres unmarked) [Compound 37], the solubility in “physchem” (setting [2]) is 0.0338 µM (≈ 0.0126 µg/mL).

In the data set “physchem” (setting [2]), `Oc1c(CNc2ccccn2)ccc2cccnc12` [Compound 56, 7-(((Pyridin-2-yl)amino)methyl)quinolin-8-ol] returned a solubility of 0.111 µM (≈ 0.0279 µg/mL).

For `Oc1c(C(Nc2ccccn2)c2ccccc2)ccc2cccnc12` (centres unmarked) [Compound 57, 7-(Phenyl((pyridin-2-yl)amino)methyl)quinolin-8-ol], the solubility in “physchem” (pH 1, aqueous solubility pH 1.0) is approximately 1200 µM (≈ 393 µg/mL); in the data set “physchem” (setting [2]), 0.078 µM (≈ 0.0255 µg/mL).

Regarding `Oc1c(I)cc(Cl)c2cccnc12` [Compound 58, 5-chloro-7-iodo-8-hydroxy-quinoline, reference compound], the serum levels in data set [1] was 13 to 25 µM. Also, in the data set “physchem” (setting [2]), the solubility was less than 0.001 µM.

As to `Oc1c(Cl)cc(Cl)c2cccnc12` [Compound 60, 5,7-dichloro-8-hydroxy-quinoline, reference compound], the solubility in the data set “physchem” (setting [2]) is 0.5 µM (≈ 0.107 µg/mL).

In “physchem” (setting [2]), `Cc1ccc2c(Cl)cc(Cl)c(O)c2n1` [Compound 61, 5,7-dichloro-2-methyl-8-hydroxy-quinoline] showed a solubility of 0.394 µM (≈ 0.0899 µg/mL).
